{
  "source": "paper PMC5585294",
  "about": "“A potent series targeting the malarial cGMP-dependent protein kinase clears infection and blocks transmission” (Nature Communications, 2017)",
  "key": {"[1]": {"test": "Cytotoxicity assay (ATP depletion), HT-29", "assay_type": "cell-based", "settings": "human, HT-29 colorectal adenocarcinoma cells, 0.001–10 µM, n = 6", "description": "(§1) A549 (lung carcinoma; ATCC, Ref. ATCC® CCL-185™), plated at 7.5×10^3 cells/well; HT-29 (colorectal adenocarcinoma; ATCC, Ref. ATCC® HTB-38™), plated at 7.5×10^3 cells/well; and MCF7 (breast adenocarcinoma; ATCC, Ref. ATCC® HTB-22™), plated at 9× 10^3 cells/well, were placed into clear bottom, opaque 96 well plates in cell line-specific medium and allowed to attach overnight. […] FCS, 1× GlutaMAX™ Supplement (Life Technologies, 35050061) and 50 units/ml penicillin and 50 µg/ml streptomycin for 48 h. Six independent assays were performed for each line and were carried out by CXR Biosciences Ltd. End point for cytotoxicity assessment was carried out using an ATP depletion kit (CellTiter-Glo Luminescent Cell Viability Assay for ATP quantitation (Promega, Cat # G7572)). Results expressed relative to the 0.1% DMSO control. Unpaired Student’s t-tests were performed using GraphPad Prism software (7.0)."}, "[2]": {"test": "Cytotoxicity assay (ATP depletion), MCF7", "assay_type": "cell-based", "settings": "human, MCF7 breast adenocarcinoma cells, 0.001–10 µM, n = 6", "description": "as §1"}, "in vivo [3]": {"test": "in vivo", "settings": "BALB/c, mouse, po", "description": "(§2) Supplementary Figure 4. Plasma concentrations over time in rodent malaria models. […] Error bars show the standard deviation. (1 picture or pasted object on this page, not shown here)"}, "[4]": {"test": "Plasma levels in satellite groups of mice, P. berghei experiment", "assay_type": "in vivo, mouse", "settings": "BALB/c, mouse, in vivo, po, 25 mg/kg", "description": "as §2"}, "[5]": {"test": "Cytotoxicity assay (ATP depletion), A549", "assay_type": "cell-based", "settings": "human, A549 lung carcinoma cells, 0.001–10 µM, n = 6", "description": "as §1"}, "in vivo [6]": {"test": "in vivo", "settings": "NOD-scid IL-2Rγc-null, mouse, po", "description": "The blood samples were immediately lysed by mixing with 25 μl of distilled water, frozen on dry ice and stored at −80 °C until analysis. The compounds were extracted from 10 μl of each lysate by liquid–liquid extraction in the MultiScreen Solvinert 0.45 μm Hydrophobic PTFE 96-well plate system (Millipore) and stored frozen at −80 °C until analysis by LC/MS/MS in API4000 (AB Sciex, Framingham, MA). The compound concentration vs. time data were analyzed by non-compartmental analysis using Phoenix® Version 6.3 (Pharsight Corporation, Mountain View, CA, USA). Additional statistical analysis was performed with GraphPad Prism® Version 6.02 (GraphPad Software Inc, San Diego CA, USA)."}, "P. chabaudi (AS)": {"system": "P. chabaudi (AS)", "test": "Synchronous P. chabaudi AS model in BALB/c mice", "assay_type": "in vivo, Plasmodium chabaudi", "settings": "4 days", "description": "Similar experiments were performed using P. chabaudi AS (from David Walliker, University of Edinburgh) with the following modifications. To allow dosing to be carried out more conveniently during the day, reversal of the light/dark exposure of mice for 2 weeks prior to the experiment was used to switch schizogony from midnight to noon each day. Mice were dosed at different time points in an attempt to have maximal coverage at the point of schizogony. All animal work protocols carried out at LSHTM were approved and licensed by the United Kingdom Home Office as governed by law under the Animals (Scientific Procedures) Act of 1986, in strict accordance with the Code of Practice Part 1 for the housing and care of animals (21 March 2005), available at http://www.homeoffice.gov.uk/science-research/animal-research/"}, "P. falciparum 3D7": {"system": "P. falciparum 3D7", "test": "Hypoxanthine incorporation growth inhibition assay, asexual blood stage, wild-type 3D7", "assay_type": "cell-based, Plasmodium falciparum", "settings": "3D7 asexual blood stage growth, 72 h, +/- s.e.m.; for pEC50: read-out: EC50 WT", "description": "Hypoxanthine incorporation assays[36] were performed on P. falciparum asexual blood stage parasites (wild-type 3D7 or T618Q gatekeeper mutant) to determine EC50 values for test compounds. Mixed staged parasites (primarily rings) were added to 96 well plates containing compounds at concentrations of 50 μM–0.3 nM. […] Assays were carried out in triplicate at least twice."}, "[7]": {"system": "P. falciparum wild-type (3D7) stage V gametocytes", "test": "Gametogenesis (rounding up) assay, wild-type 3D7 stage V gametocytes", "assay_type": "cell-based, Plasmodium falciparum", "settings": "30 µM xanthurenic acid; 2 µM ML1, 1 µM ML10", "description": "Plasmodium falciparum clone 3D7A (obtained from Dr Lisa Ranford-Cartwright, University of Edinburgh) gametocytes were initiated and cultured using an adapted version of the traditional Trager and Jenson method modified by Fivelman and colleagues. Stage V gametocytes were purified on a 60% Percoll gradient. Purified parasite samples were diluted in warm complete media (RPMI-1640 (Sigma), 0.5% Albumax (Invitrogen), 0.03% L-glutamine (Sigma), 0.2% Glucose (Sigma), 1× hypoxanthine (Sigma)), to a volume that would allow a final volume of […] per sample and a haematocrit of <10%. […] Control tubes containing DMSO only were kept at 37 °C. All other samples were incubated at room temperature for 30 min immediately after addition of test compounds. Samples were then washed once in warm RPMI followed by removal of the supernatant to leave a final haematocrit of roughly 50%. Samples were smeared on glass slides and fixed in 100% methanol (VWR) then stained for 15 min in 10% Giemsa R66 (VWR) and observed by light microscopy. The number of gametocytes at stage V and rounded up per 900 erythrocytes were counted three consecutive times to produce an average count. Numbers of parasites rounded up were compared to the no drug control."}, "[8]": {"system": "P. falciparum gatekeeper mutant (T618Q) stage V gametocytes", "test": "Gametogenesis (rounding up) assay, T618Q stage V gametocytes", "assay_type": "cell-based, Plasmodium falciparum", "settings": "30 µM xanthurenic acid; 2 µM ML1, 1 µM ML10"}, "[9]": {"test": "Stability in mouse liver microsomes", "settings": "mouse, microsomes, 0.5 h", "description": "Compound mlm hlm mLogD PAMPA HepG2 name (%rem) (%rem) (nm/s) (IC50 µM)\nSupplementary Table 2. Compound Properties. MLM, HLM, mLogD and PAMPA . mlm (%rem): % of compound remaining after 30 minutes’ incubation with mouse liver microsomes; hlm (%rem): % of compound remaining after 40 minutes’ incubation with human liver microsomes; mLogD: measured LogD at pH 7.4; PAMPA: parallel artificial membrane permeability assay; HepG2: Cytotoxicity assay using HepG2 cells; n.t.: not tested."}, "[10]": {"system": "P. falciparum strain 3D7A", "test": "In vitro parasite reduction rate (PRR) assay", "settings": "10× EC50", "procedure": "The assay used the limiting dilution technique to quantify the number of parasites that remained viable after drug treatment. […] To quantify the number of viable parasites after treatment, threefold serial dilutions were used with the above-mentioned samples after removing the drug. Four independent serial dilutions were performed with each sample to correct experimental variations. The number of viable parasites was determined after 21 and 28 days by counting the number of wells with growth using [^3H]-hypoxanthine incorporation. The number of viable parasites was back-calculated by using the formula X ^n-1 where n is the number of wells able to render growth and X the dilution factor (when n = 0, number of viable parasites is estimated as zero)."}, "[11]": {"system": "panel of 80 human protein kinases", "test": "Human kinase panel single point screen", "assay_type": "biochemical", "settings": "tested at 100 nM", "description": "The results are expressed as % inhibition of kinase activity.\n(1 picture or pasted object on this page, not shown here)"}},
  "note": "pEC50: −log10 of the molar value. Like-named read-outs stand apart in the source and are kept apart here.",
  "data": [
    {"smiles": "Cc1cn2c(-c3ccnc(NCC4CC4)n3)c(-c3ccc(F)c(NS(C)(=O)=O)c3)nc2cc1CN(C)C", "note": "[ML10]", "values": [
      {"measurement": "EC50 at 48 h", "setting": "[1]", "result": "> 10000", "unit": "nM"},
      {"measurement": "EC50 at 48 h", "setting": "[2]", "result": "> 10000", "unit": "nM"},
      {"measurement": "half-life", "setting": "in vivo [3]; 25 mg/kg", "result": 0.8, "unit": "h"},
      {"measurement": "concentration at 30 min", "setting": "in vivo [3]; 50 mg/kg", "result": 10.4, "unit": "µM"},
      {"measurement": "concentration at 60 min", "setting": "in vivo [3]; 50 mg/kg", "result": "~8.4", "unit": "µM"},
      {"measurement": "concentration at 4 h", "setting": "in vivo [3]; 50 mg/kg", "result": "< 0.084", "unit": "µM"},
      {"measurement": "half-life", "setting": "in vivo [3]; 50 mg/kg", "result": 1.1, "unit": "h"},
      {"measurement": "half-life", "setting": "[4]", "result": 0.8, "unit": "h"},
      {"measurement": "EC50 at 48 h", "setting": "[5]", "result": "> 10000", "unit": "nM"},
      {"measurement": "half-life", "setting": "in vivo [6]; 50 mg/kg", "result": 8.7, "unit": "h"},
      {"measurement": "half-life", "setting": "in vivo [6]; 100 mg/kg", "result": 17, "unit": "h"},
      {"measurement": "reduction in blood stage parasitaemia", "setting": "P. chabaudi (AS); single daily oral dose 50 mg/kg just prior to schizogony", "result": 60.9, "unit": "%"},
      {"measurement": "reduction in blood stage parasitaemia (mean)", "setting": "P. chabaudi (AS); twice daily oral dose 50 mg/kg (3 h apart)", "result": 97.8, "unit": "%"},
      {"measurement": "pEC50", "setting": "P. falciparum 3D7", "result": 8.68},
      {"measurement": "pEC50", "setting": "P. falciparum 3D7; Plasmodium falciparum, 3D7, 72 h", "result": "~8.70"},
      {"measurement": "EC90", "setting": "P. falciparum 3D7; Plasmodium falciparum", "result": 4.5, "unit": "nM"},
      {"measurement": "rounding up of wild-type gametocytes", "setting": "[7]", "result": "blocked rounding up"},
      {"measurement": "rounding up of T618Q gametocytes", "setting": "[8]", "result": "insensitive"},
      {"measurement": "mlm (%rem)", "setting": "[9]", "result": 59, "unit": "%"},
      {"measurement": "lag before killing (effects reversible following wash-out)", "setting": "[10]", "result": "about 24 h"},
      {"measurement": "inhibitory activity against panel of 80 human protein kinases", "setting": "[11]", "result": "only low levels of inhibitory activity"}
    ]}
  ]
}
